Results taken from ChEMBL document CHEMBL2062396, “Synthesis and classical pathway Complement inhibitory activity of C7-functionalized filifolinol derivatives, inspired in K-76 COOH” (Eur J Med Chem, 2012).
Where a name gives a salt, the structure may show the parent alone.

Experiment: Inhibition of human classical pathway Complement system assessed as inhibition of complement mediated hemolysis of sensitized sheep RBCs using fresh human sera by Weissman method; call rule not given here

Row | Structure (SMILES) | IC50 (read-out: IC50) | IC50
1 | C[C@@H]1CC[C@H](O)C(C)(C)[C@]12Cc1cc(C(=O)O)ccc1O2 [FILIFOLINOIC ACID SODIUM SALT] | 2000 µM | 
2 | C[C@@H]1CC[C@H](O)C(C)(C)[C@]12Cc1cc(C(=O)O)cc(CCC(=O)O)c1O2 | 360 µM | 
3 | C[C@@H]1CC[C@H](O)C(C)(C)[C@]12Cc1cc(C(=O)O)cc(/C=C/C(=O)O)c1O2 | 970 µM | 
4 | C[C@@H]1CC[C@H](O)C(C)(C)[C@]12Cc1cc(C(=O)O)cc(Br)c1O2 | 840 µM | 
5 | C[C@@H]1CC[C@H](O)C(C)(C)[C@]12Cc1cc(C(=O)O)cc([N+](=O)[O-])c1O2 | 1880 µM | 
6 | C[C@@H]1CC[C@H](O)C(C)(C)[C@]12Cc1cc(C(=O)O)cc(CC(O)CO)c1O2 (mixture of isomers) | 360 µM | 
7 | C[C@@H]1CC[C@H]2C(C)(C)[C@H](O)[C@H](O)C[C@]2(C)[C@@]12Cc1c(O)cc(C(=O)O)c(C=O)c1O2 | 570 µM | 
8 | CC1(C)CC[C@]2(C(=O)O)CC[C@]3(C)C(=CC[C@@H]4[C@@]5(C)CC[C@H](OC(=O)COCC(=O)O)C(C)(C)[C@@H]5CC[C@]43C)[C@@H]2C1 [OLEANOLIC ACID HEMIDIGLYCOLATE SODIUM SALT] | 31 µM | 
9 | C[C@@H]1CC[C@H](O)C(C)(C)[C@]12Cc1cc(C(=O)O)cc(C(F)(F)F)c1O2 | 100 µM | 
10 | C[C@@H]1CC[C@H](O)C(C)(C)[C@]12Cc1cc(C(=O)[O-])cc(CC(=O)O)c1O2.[Na+] |  | Not Active
11 | C[C@@H]1CC[C@H](O)C(C)(C)[C@]12Cc1cc(C(=O)O)cc(C(=O)O)c1O2 | 7000 µM | 
12 | C[C@@H]1CC[C@H](O)C(C)(C)[C@]12Cc1cc(C(=O)O)cc(Cl)c1O2 | 1540 µM | 
13 | C[C@@H]1CC[C@H](O)C(C)(C)[C@]12Cc1cc(C(=O)O)cc(I)c1O2 | 1140 µM | 
14 | C[C@@H]1CC[C@H](O)C(C)(C)[C@]12Cc1cc(C(=O)O)cc(-c3ccccc3)c1O2 | 140 µM | 
15 | C[C@@H]1CC[C@H](O)C(C)(C)[C@]12Cc1cc(C(=O)O)cc(-c3ccc(C(=O)O)cc3)c1O2 | 18000 µM | 
16 | C[C@@H]1CC[C@H](O)C(C)(C)[C@]12Cc1cc(C(=O)O)cc(N)c1O2 | 7270 µM | 
